Assay results from publication PMC13108699, “Mass balance and metabolite profiling of ^14C-Zalunfiban in humans following single-dose subcutaneous administration” (Xenobiotica; the fate of foreign compounds in biological …, 2025).
Values joined by “and” are separate entries in the source; they are usually repeats but may differ in a detail not shown here. Identical values can stand only once.

Key:
platelet aggregation = experiment: In vitro inhibition of ADP-induced platelet aggregation in platelet-rich plasma; format: cell-based, human; conditions: Homo sapiens, Platelet, 20 min; PRP, 20 min at 22°C, ADP-initiated aggregation
Experimental: Ten mL of whole blood was collected from healthy human donors via venipuncture and treated with an anticoagulant (D-phenylalanyl-prolyl-arginyl chloromethyl ketone). From this, platelet-rich plasma (PRP) was prepared by centrifuging whole blood at room temperature at 650 × g for 4 min. PRP was removed and standardised to a uniform platelet concentration of 3.0 × 10^5/μL, using platelet poor plasma as a diluent, where necessary. […] Platelet aggregation was measured using an aggregometer (PAP-8E C/N 106075; Bio/Data Corp, Horsham PA). For M1 a range of concentrations was tested to produce a single fitted curve, and the Levenberg-Marquardt approach was used to calculate IC50 values.

[1] = Whole blood total radioactivity (AMS) PK after SC ^14C-zalunfiban; format: in vivo, human
Experimental: The planned participant enrolment size was 8, with 2 additional alternate participants available on the morning of dosing. Following a 28-day screening period, all eligible participants were admitted to the research unit the evening before dosing. After fasting overnight, participants completed a standard breakfast prior to dosing on study day 1. After dosing, subjects fasted for 4 h. Fluids were permitted ad libitum starting 1-hour after dosing. […] The clinical study was conducted at the Pharmaron Clinical Pharmacology Centre (Baltimore, MD) and the study protocol, consent forms and regulatory documents were reviewed and approved by the […] Institutional Review Board (Columbia, MD). All participants received the same fixed mass dose of SC 9.5 mg ^14C-zalunfiban (5 μCi), in 0.5 mL of formulation solution. This zalunfiban dose was chosen to both ensure participant safety and to make certain the study results were clinically relevant. For the latter, by strict inclusion of participants with a body weight within the range of 73-99 kg, the zalunfiban doses were no higher than the highest administered in the currently ongoing Phase 3 study, which includes three groups of 0.110 mg/kg zalunfiban, 0.130 mg/kg zalunfiban, and placebo ([NIH 2025]). The ^14C radiolabel dose of 5 μCi presented minimal radiation risk to healthy subjects while providing a high likelihood of meeting the study objectives. […] At the laboratory, extraction of ^14C-zalunfiban from whole blood was achieved by repeated microcentrifugation, vortex mixing, and harvesting to collect analytes (see Metabolite profiling and excretion for more details). […] Whole blood samples were analysed using accelerator mass spectrometry (AMS). Urine sample analysis was performed using liquid scintillation counting analysis. Each sample was counted for at least 10 min or until the 2%2σ terminator was reached. Homogenised faeces samples were combusted in a Perkin Elmer, Model 307 sample oxidiser (Perkin Elmer, Waltham MA). […] For urine and faeces samples, total radioactivity analysis was initially performed using two liquid scintillation counters (LSC), a TriCarb 3180 TR/SL and a TriCarb 5110 TR (Perkin Elmer, Waltham MA). When the measured total radioactivity concentration was above the LLOQ, LSC data were reported. For LSC, the LLOQ was defined as twice the background count rate. If the radioactivity concentration was below the limit of quantification (BLOQ), samples were analysed by Accelerator Mass Spectrometry (AMS). For AMS analysis, the LLOQ for total radioactivity depends on multiple factors, including the carbon content of the sample, and it is provided as the mean of all participant values. The mean (SD) total radioactivity LLOQ for zalunfiban in whole blood was 0.2421 (0.0571) ngEq/mL, for faeces 0.0663 (0.0135) ngEq/gm, and urine 0.0088 (0.0029) ngEq/g. Zalunfiban and whole blood radioactivity concentrations were used to calculate PK parameters using standard non-compartmental analysis (NCA) methods using Phoenix WinNonlin software (Phoenix, Princeton, NJ). All statistical programming and tables, figures and listings were carried out using SAS 9.4 (SAS Institute, Inc., Cary, NC).

[2] = Safety assessments (adverse events, laboratory, vital signs, ECG); format: in vivo, human; conditions: for Tolerability: single SC 9.5 mg, 8 healthy males
Experimental: The study was reviewed, approved, and monitored by both an independent Institutional Review Board and a Data Safety Monitoring Board, and the protocol was performed under an Investigational New Drug Application. The safety of single-dose SC zalunfiban was evaluated by monitoring adverse events, clinical laboratory data, vital signs, 12-lead electrocardiogram, and physical examination. Vital signs (blood pressure, heart rate, body temperature, respiratory rate) were measured at screening, admission, pre-dose, post-dose at 1, 4, 8, hours, and in the morning on study days 2–11. Safety laboratory tests included serum chemistry, haematology, coagulation, and urinalysis, and were performed at screening, admission, and on study days 1, 4, and 11. On day 1, additional platelet counts were performed post-dose at 2, 6, and 12 h. […] Participants were continuously monitored for adverse events (AEs) and new use of medication(s).
During the study, AEs were collected from the time of informed consent to the last time the participant was seen. Any AE that occurred after the start of study drug administration was considered a treatment-emergent AE (TEAE). The investigator or designee assessed the severity of all AEs using the toxicity grading scale in National Cancer Institute Common Terminology Criteria for Adverse Events v5.0. These scales assign a grade of 1 through 5 to indicate the severity of AEs.

NCC(=O)Nc1cncc(-c2nn3c(=O)cc(N4CCNCC4)nc3s2)c1 [Zalunfiban, 2-amino-N-{5-[5-oxo-7-(piperazin-1-yl)-5H-[1,3,4]thia-diazolo[3,2-a]pyrimidin-2-yl]pyridin-3-yl}acetamide]
IC50 (platelet aggregation): 112 nM
Time of first detection of whole blood radioactivity ([1]; all participants): 5 min
Time to which whole blood total radioactivity remained quantifiable ([1]; all subjects except one (216 h)): up to 240 h
Mean whole blood zalunfiban/total radioactivity expressed as a percentage, AUC0–4 ([1]; first 4 h after dose): 35.6% and 35%
t1/2, whole blood total radioactivity ([1]; mean, overall (0.5 h to 240 h), n=8): 98.3 h
Mean whole blood zalunfiban/total radioactivity expressed as a percentage, AUC0-inf ([1]; to be interpreted with caution (different assay sensitivity)): 15.1%
TEAE headache ([2]; 1 grade 1 and one grade 2, of 8 dosed): 2 participants
Changes in clinical laboratory tests, vital signs, or ECGs ([2]; 8 dosed): no observed clinically significant changes
Serious TEAEs ([2]; 8 dosed): no serious TEAEs
TEAEs leading to study discontinuation ([2]; 8 dosed): no TEAEs leading to study discontinuation
TEAE confusion ([2]; grade 1, of 8 dosed): 1 participant
TEAE injection site bruising ([2]; grade 1, of 8 dosed): 1 participant
TEAE injection site pain ([2]; grade 1, of 8 dosed): 1 participant
Participants with Grade 1 AEs ([2]; of 8 dosed): 4 participants
Participants with a Grade 2 AE ([2]; of 8 dosed): 1 participant
Tolerability [2]: well-tolerated
Tolerability ([2]; listed as 14C-zalunfiban): safe and well-tolerated
